Where two headings read alike, the source gives them in different places.
Tests used:
KDM5A = KDM5A (Homo sapiens (Human), UniProt P29375); experiment: Biochemical KDM5A Inhibition Assay (HTRF); conditions: KDM5A protein, biotin-labelled H3K4-Me3 substrate
Method: Biochemical KDM5A Inhibition Assay
Using 384-well white Greiner784075 (Greiner), representative compounds were characterized for their inhibition of KDM5A using HTRF® technology (Cisbio Bioassays). Briefly, the test compounds, reference compounds, and DMSO control (typical compound concentration range 1 μM-[…], final assay concentration (FAC*) of DMSO 0.5%) were added to 384-well plate by the Echo® acoustic dispensing platform (Labcyte). Five (5) 1l of KDM5A protein (produced by the method described in Nat Chem Biol 12, 531-538 (2016)). (5-20 nM FAC*) in assay buffer (50 mM MES, 50 mM NaCl, 1 mM TCEP, 0.01% v/v Tween 20, 0.03% BSA, pH 6.5) was added to wells and plates were incubated for 10-20 minutes at 25 degrees celsius. Then, 5 μl of alpha-ketoglutaric acid (100 μM FAC*), biotin-labelled H3K4-Me3 substrate (Anaspec Cat #AS-64357-1; 200 nM FAC*), Fe(II)SO4 (100 μM FAC*) and ascorbic acid (2 mM FAC*) in assay buffer was added to wells and plates were incubated for 20 minutes at room temperature. The reaction was stopped with the addition of 10 μl of anti-H3K4-Me2-Eu(K) (Cisbio Bioassays Cat #61KA2KAH; 0.75 nM FAC**)+Streptavidin XL665 (Cisbio Bioassays Cat #610SAXLB; 25 nM FAC**) in HTRF detection buffer (Cisbio Bioassays Cat #62SDBRDF). The mixture was incubated for 30 minutes at room temperature before 340 nm excitation and measurement of dual emission at 620 nm and 665 run. *FAC: final assay concentration calculated based on 10 μl of the assay buffer**FAC: final assay concentration calculated based on 20 μl of the detection buffer
The raw data (a 665 nm and a 620 nm reading from each well) for individual assay plates were analyzed. The ratio of emissions was calculated using the following calculation: Ratio=(665 nm emission/620 nm emission)×10000. […] Compound IC50 values were calculated from graphs of % inhibition plotted against compound concentration, using a four parameter curve fit. [Results]

[1] = Metabolic Stability in Human Liver Microsomes; type: in vitro ADME
Method: Metabolic Stability in Human Liver Microsomes
Human liver microsome (BD Gentest Corporation, Cat No. #452161) incubations were conducted in duplicate in 96-well plates. Each well contains 40 μL of 0.1 M potassium phosphate buffer (pH 7.4), 4.125 mM MgCl2, 0.625 mg/mL liver microsomes, and test compound (1.25 μM). After 5-min preincubation at 37° C., 10 uL of 5.0 mM NADPH in 0.1M potassium phosphate buffer was added to initiate the enzymatic reaction. The final component concentrations are 0.1M potassium phosphate buffer (pH 7.4), 1.0 mM NADPH, 3.3 mM MgCl2, 0.5 mg/mL liver microsomes, and test compound (1.0 μM). Reactions were terminated at 0 and 60 min by adding 200 μL of ice-cold acetonitrile containing internal standard.
LC-MS/MS analysis was conducted as specified below.
The remaining at 60 min (%) of test compound was calculated from the peak area ratio (test compound/internal standard) of samples collected 0 and 60 min after the start of the reaction according to the formula described below. Remaining at 60 min (%)=peak area ratio of sample collected at 60 min/peak area ratio of sample collected at 0 min×100 [Results]

[2] = Brain Concentration in Mice; type: in vivo; conditions: mouse, mice (C57BL/6)
Method: Brain Concentration in Mice
Test compounds were orally administered to mice (C57BL/6) at 1 or 3 mg/kg. Brain samples were collected 2 h after the administration and homogenized with 3-fold volumes of distilled water.
LC-MS/MS analysis was conducted as specified below. Standard calibration samples were prepared using the same matrix and analyzed in the same manner.
Standard calibration samples were analyzed to calculate a regression equation from the peak area ratio (test compound/internal standard). The peak area ratio was determined for a measurement sample and assigned to the regression equation to calculate an assay value.

[3] = human, microsomes, 1 h, 1 μM, pH 7.4
[4] = po, orally administered, 1 mg/kg, brain 2 h after administration, read-out: Unbound-Brain Concentration at 2 h at 1 mg/kg
[5] = 0.5 mg/mL liver microsomes, 1.0 μM test compound, 1.0 mM NADPH, 37° C., 60 min

KDM5A, sequence (P29375 whole entry): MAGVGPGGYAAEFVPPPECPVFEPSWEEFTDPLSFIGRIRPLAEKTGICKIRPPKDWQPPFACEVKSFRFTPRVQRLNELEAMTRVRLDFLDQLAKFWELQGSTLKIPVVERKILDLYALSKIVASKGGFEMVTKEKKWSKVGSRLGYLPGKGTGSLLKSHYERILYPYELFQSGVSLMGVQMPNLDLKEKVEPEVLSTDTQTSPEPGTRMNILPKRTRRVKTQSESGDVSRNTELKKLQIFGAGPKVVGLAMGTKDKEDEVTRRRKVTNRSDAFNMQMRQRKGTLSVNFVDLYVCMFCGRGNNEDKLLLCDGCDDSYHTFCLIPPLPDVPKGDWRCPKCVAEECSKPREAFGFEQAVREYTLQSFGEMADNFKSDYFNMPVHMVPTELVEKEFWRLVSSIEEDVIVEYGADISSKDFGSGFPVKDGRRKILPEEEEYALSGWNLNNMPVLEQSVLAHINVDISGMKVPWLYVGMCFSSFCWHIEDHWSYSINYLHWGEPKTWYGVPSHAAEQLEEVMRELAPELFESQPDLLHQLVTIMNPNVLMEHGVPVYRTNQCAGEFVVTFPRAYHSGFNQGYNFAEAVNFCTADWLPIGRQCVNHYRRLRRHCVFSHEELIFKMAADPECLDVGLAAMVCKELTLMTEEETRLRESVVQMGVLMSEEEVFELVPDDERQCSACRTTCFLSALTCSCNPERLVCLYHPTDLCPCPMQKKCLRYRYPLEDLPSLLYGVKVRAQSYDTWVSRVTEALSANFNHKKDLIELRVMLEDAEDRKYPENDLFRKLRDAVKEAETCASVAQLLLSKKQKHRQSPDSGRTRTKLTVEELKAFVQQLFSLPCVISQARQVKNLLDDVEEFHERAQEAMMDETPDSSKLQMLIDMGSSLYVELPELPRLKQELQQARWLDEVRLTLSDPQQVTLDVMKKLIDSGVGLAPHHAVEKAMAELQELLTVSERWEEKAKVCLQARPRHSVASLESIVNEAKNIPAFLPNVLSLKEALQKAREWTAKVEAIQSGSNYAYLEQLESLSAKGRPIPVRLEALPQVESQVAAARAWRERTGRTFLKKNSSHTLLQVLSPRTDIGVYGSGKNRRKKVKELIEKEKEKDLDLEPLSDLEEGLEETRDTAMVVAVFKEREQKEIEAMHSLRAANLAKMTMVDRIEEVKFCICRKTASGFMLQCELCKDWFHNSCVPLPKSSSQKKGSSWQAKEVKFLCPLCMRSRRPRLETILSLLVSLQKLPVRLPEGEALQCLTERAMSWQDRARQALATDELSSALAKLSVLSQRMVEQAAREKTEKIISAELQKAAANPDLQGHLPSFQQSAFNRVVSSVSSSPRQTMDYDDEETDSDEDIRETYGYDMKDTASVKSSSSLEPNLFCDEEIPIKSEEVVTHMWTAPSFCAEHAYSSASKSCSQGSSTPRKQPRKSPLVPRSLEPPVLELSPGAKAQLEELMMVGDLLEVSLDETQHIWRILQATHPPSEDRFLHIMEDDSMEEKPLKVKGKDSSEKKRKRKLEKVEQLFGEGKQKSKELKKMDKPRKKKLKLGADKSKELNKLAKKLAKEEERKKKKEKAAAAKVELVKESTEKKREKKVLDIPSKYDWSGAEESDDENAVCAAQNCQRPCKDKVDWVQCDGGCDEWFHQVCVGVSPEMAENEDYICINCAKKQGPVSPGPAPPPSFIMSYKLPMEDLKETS

SMILES | IC50 (KDM5A) [µM] | Metabolic stability in human liver microsomes (% remaining at 60 min) ([1]; human, microsomes, 1 h) [%] | other results
CC(C)n1cnc(C(=O)N2C[C@@H]3[C@H](C2)[C@H]3C2=NOC(C)(C)C2)c1 [Example 1, [(1R,5S,6r)-6-(5,5-dimethyl-4,5-dihydro-1,2-oxazol-3-yl)-3-azabicyclo[3.1.0]hex-3-yl](1-isopropyl-1H-imidazol-4-yl)methanone] | 0.02 |  | Metabolic stability in human liver microsomes (% remaining at 60 min) [1, 3]: 95%; concentration at 2 h ([2]; brain, oral, 2 h, values with * obtained by proportional calculation from the 3 mg/kg data, read-out: Unbound-Brain Concentration at 2 h at 1 mg/kg): 93.7 ng/g
CC[C@H](C)n1cnc(C(=O)N2C[C@@H]3[C@H](C2)[C@H]3C2=NOC(C)(C)C2)c1 [Example 12, {1-[(2S)-butan-2-yl]-1H-imidazol-4-yl}[(1R,5S,6S)-6-(5,5-dimethyl-4,5-dihydro-1,2-oxazol-3-yl)-3-azabicyclo[3.1.0]hex-3-yl]methanone] | 0.06 |  | Metabolic stability in human liver microsomes (% remaining at 60 min) [1, 3]: 100%; concentration at 2 h [2, 4]: 10.8 ng/g
CC1(C)CC([C@H]2[C@@H]3CN(C(=O)c4cn(C5(C)CC5)cn4)C[C@@H]32)=NO1 [Example 33, [(1R,5S,6r)-6-(5,5-dimethyl-4,5-dihydro-1,2-oxazol-3-yl)-3-azabicyclo[3.1.0]hex-3-yl][1-(1-methylcyclopropyl)-1H-imidazol-4-yl]methanone] | 0.03 |  | Metabolic stability in human liver microsomes (% remaining at 60 min) [1, 3]: 103%; concentration at 2 h [2, 4]: 62.1 ng/g
CC(C)n1cnc(C(=O)N2C[C@@H]3[C@H](C2)[C@H]3C(=O)C2CC2)c1 [Example 75, cyclopropyl{(1R,5S,6r)-3-[(1-isopropyl-1H-imidazol-4-yl)carbonyl]-3-azabicyclo[3.1.0]hex-6-yl}methanone] | 0.4 | 102 | 
CC(C)n1cnc(C(=O)N2C[C@@H]3[C@H](C2)[C@@]3(C)C2=NOC3(CC3)C2)c1 [Example 84, (1-isopropyl-1H-imidazol-4-yl)[(1R,5S,6r)-6-methyl-6-(4-oxa-5-azaspiro[2.4]hept-5-en-6-yl)-3-azabicyclo[3.1.0]hex-3-yl]methanone] | 0.03 |  | Metabolic stability in human liver microsomes (% remaining at 60 min) [1, 5]: 92%
CC(C)n1cnc(C(=O)N2C[C@@H]3[C@H](C2)[C@@]3(C)C(=O)NC(C)(C)C)c1 [Example 87, (1R,5S,6r)-N-tert-butyl-6-methyl-3-[1-(propan-2-yl)-1H-imidazole-4-carbonyl]-3-azabicyclo[3.1.0]hexane-6-carboxamide] | 0.04 |  | Metabolic stability in human liver microsomes (% remaining at 60 min) [1, 5]: 99%
CC(c1cc(C(=O)N2C[C@@H]3C(C4=NOC(C)(C)C4)[C@@H]3C2)n[nH]1)C1CC1 (stereo partly drawn) [Example 90, [5-(1-cyclopropylethyl)-1H-pyrazol-3-yl][(1R,5S,6r)-6-(5,5-dimethyl-4,5-dihydro-1,2-oxazol-3-yl)-3-azabicyclo[3.1.0]hex-3-yl]methanone] | 0.05 |  | Metabolic stability in human liver microsomes (% remaining at 60 min) [1, 5]: 100%
CC1CC(C2[C@H]3CN(C(=O)c4cc(C(C)C)[nH]n4)C[C@@H]23)=NO1 (stereo partly drawn) [Example 93, (5-isopropyl-1H-pyrazol-3-yl)[(1R,5S,6r)-6-(5-methyl-4,5-dihydro-1,2-oxazol-3-yl)-3-azabicyclo[3.1.0]hex-3-yl]methanone] | 0.2 | 86 | 
CC(C)c1cc(C(=O)N2C[C@@H]3[C@H](C2)[C@H]3C2=NO[C@H]3C[C@@H]23)n[nH]1 [Example 96, (5-isopropyl-1H-pyrazol-3-yl){(1R,5S,6r)-6-[(1S,5S)-2-oxa-3-azabicyclo[3.1.0]hex-3-en-4-yl]-3-azabicyclo[3.1.0]hex-3-yl}methanone] | 0.03 | 83 | 
CCN1C([C@H]2[C@@H]3CN(C(=O)c4cc(C(C)C)[nH]n4)C[C@@H]32)=NOC1(C)C [Example 110, [(1R,5S,6r)-6-(4-ethyl-5,5-dimethyl-4,5-dihydro-1,2,4-oxadiazol-3-yl)-3-azabicyclo[3.1.0]hex-3-yl](5-isopropyl-1H-pyrazol-3-yl)methanone] | 0.05 | 85 | 
Cc1nnc([C@H]2[C@@H]3CN(C(=O)c4cc(C(C)C)[nH]n4)C[C@@H]32)o1 [Example 119, (5-isopropyl-1H-pyrazol-3-yl)[(1R,5S,6r)-6-(5-methyl-1,3,4-oxadiazol-2-yl)-3-azabicyclo[3.1.0]hex-3-yl]methanone] | 0.3 | 102 | 
CC(C)c1cc(C(=O)N2C[C@@H]3[C@H](C2)[C@H]3c2nncn2-c2ccccc2)n[nH]1 [Example 121, (5-isopropyl-1H-pyrazol-3-yl)[(1R,5S,6r)-6-(4-phenyl-4H-1,2,4-triazol-3-yl)-3-azabicyclo[3.1.0]hex-3-yl]methanone] | 0.04 | 114 | 
Cc1nnc([C@H]2[C@@H]3CN(C(=O)c4cc(C(C)C)[nH]n4)C[C@@H]32)n1C1CCC1 [Example 124, [(1R,5S,6r)-6-(4-cyclobutyl-5-methyl-4H-1,2,4-triazol-3-yl)-3-azabicyclo[3.1.0]hex-3-yl](5-isopropyl-1H-pyrazol-3-yl)methanone] | 0.04 | 97 | 
COc1ccc2nnc([C@H]3[C@@H]4CN(C(=O)c5cc(C(C)C)[nH]n5)C[C@@H]43)n2c1 [Example 131, (5-isopropyl-1H-pyrazol-3-yl)[(1R,5S,6r)-6-(6-methoxy[1,2,4]triazolo[4,3-a]pyridin-3-yl)-3-azabicyclo[3.1.0]hex-3-yl]methanone] | 0.01 | 84 | 
CC(C)NC(=O)[C@H]1[C@@H]2CN(C(=O)c3cc(C(C)C)[nH]n3)C[C@@H]21 [Example 136, (1R,5S,6r)-N-(propan-2-yl)-3-[5-(propan-2-yl)-1H-pyrazole-3-carbonyl]-3-azabicyclo[3.1.0]hexane-6-carboxamide] | 0.05 | 97 | 
C[C@]1(C2=NOC3(CC3)C2)[C@@H]2CN(C(=O)c3cc(C4CC4)[nH]n3)C[C@@H]21 [Example 144, (5-cyclopropyl-1H-pyrazol-3-yl)[(1R,5S,6r)-6-methyl-6-(4-oxa-5-azaspiro[2.4]hept-5-en-6-yl)-3-azabicyclo[3.1.0]hex-3-yl]methanone] | 0.02 |  | Metabolic stability in human liver microsomes (% remaining at 60 min) [1, 5]: 101%
CC(C)c1cc(C(=O)N2C[C@@H]3[C@H](C2)[C@@]3(C)C(=O)NC(C)(C)C)n[nH]1 [Example 145, (1R,5S,6r)-N-tert-butyl-6-methyl-3-[5-(propan-2-yl)-1H-pyrazole-3-carbonyl]-3-azabicyclo[3.1.0]hexane-6-carboxamide] | 0.09 | 99 | 
CC(C)c1cc(C(=O)N2CC[C@@H](NC(=O)C3CC3)C2)[nH]n1 [comparative compound, (R)—N-(1-(3-isopropyl-1H-pyrazole-5-carbonyl)pyrrolidin-3-yl)cyclopropane carboxamide, reference compound] |  |  | concentration at 2 h ([2]; brain, oral, 2 h, comparative compound, dose not restated in the sentence, read-out: Unbound-Brain Concentration at 2 h): 2.5 ng/g

— patent US11691968B2, “Compound having KDM5 inhibitory activity and pharmaceutical use thereof” (ONO PHARMACEUTICAL CO., LTD., priority 2020, dated 2023)
